Data from patent US4975434A, “Antiviral and anticancer cyclopentenyl cytosine” (priority 1989, dated 1990).
Converted amounts (≈) assume the structure as drawn. “And” between values parts separate entries of the source, which are not always exact repeats. Equal entries are not always repeated. Where two headings read alike, the source gives them in different places.

Experiments:
[1] = test system: tumors; test: Antitumor activity (general statement)
[2] = test system: Vesicular Stomatitis virus, strain Indiana; type: cell-based; settings: L929 cells, strain Indiana; two determinations
[3] = test system: enzyme which hydrolyzes S-adenosyl-L-homocysteine (AdoHcy); settings: literature; cited from earlier work
[4] = test system: phosphorylation and deamination; settings: cited from earlier work
[5] = test system: CTP synthesase; test: Inhibition of CTP synthesis (CTP synthesase); type: biochemical
[6] = test system: L1210 leukemia; test: In vivo antitumor test, L1210 leukemia in mice; settings: Table IV, QD1-9, terminated day 60
[7] = test system: LOX Melanoma; test: Human tumor xenograft in athymic mice, LOX melanoma (intraperitoneal); settings: for % ILS: Table IV, QD1-9
[8] = test system: MX-1 Mammary; test: Human tumor xenograft in athymic mice, MX-1 mammary (subrenal capsule); settings: for % tumor weight inhibition: Table IV, QD1-9, day 0 to day 11
[9] = test system: L1210 leukemia; settings: cited from earlier work; for increase in life span: literature values
[10] = test system: Herpes simplex type 1 (TK+), strain E-377; test: Cytopathogenic inhibition test, HSV-1 TK+; type: cell-based; settings: for IC50: Human alphaherpesvirus 1, inhibition of virus-induced cytopathogenic effects, read-out: ID50 (the source's name); for IC50 / VR (virus rating): Vero cells, strain E-377
[11] = test system: Herpes simplex type 1 (TK-), strain HF; test: microbe, parasite or virus in culture; type: cell-based
[12] = test system: Herpes simplex type 2, strain MS; test: Cytopathogenic inhibition test, HSV-2; type: cell-based; settings: Vero cells, strain MS; for IC50: Human alphaherpesvirus 2, inhibition of virus-induced cytopathogenic effects, read-out: ID50 (the source's name)
[13] = test system: vaccinia virus (IHD strain); type: in vivo, mouse (CD-I); settings: Ara-A 300 mg/kg, QD 1-7 subcutaneous; PBS control 45.8
[14] = test system: Vaccinia, strain Lederle CA; test: microbe, parasite or virus in culture; type: cell-based
[15] = test system: L1210 tumor cells; settings: literature; cited from earlier work
[16] = test system: H.Ep.-2 cells; settings: literature; cited from earlier work
[17] = test system: adenosine deaminase; settings: literature; cited from earlier work
[18] = test system: quiescent normal cells; malignant cell lines; settings: subtoxic concentrations; literature; cited from earlier work
[19] = test system: Herpes simplex type 1 (TK-), strain HF; settings: literature; cited from earlier work
[20] = test system: Rhinovirus 1A; settings: literature; cited from earlier work
[21] = test system: influenza viruses; settings: literature; cited from earlier work
[22] = test system: several DNA viruses; settings: literature; cited from earlier work
[23] = test system: two other RNA viruses; settings: literature; cited from earlier work
[24] = test system: Cytomegalovirus, strain AD 169; test: Cytomegalovirus (CMV) Yield Reduction Assay; type: cell-based
[25] = test system: Varicella-Zoster virus, isolate DM625; test: Varicella-Zoster Virus (VZV) Plaque Reduction Assay; type: cell-based; settings: Human alphaherpesvirus 3, 144 h, Huf cells
[26] = test system: MRC5 (diploid human embryonic lung cells); test: Toxicity to MRC5 host cells (gross cell morphology) in the CMV assay; settings: 320 μg/ml
[27] = test system: cells; settings: literature; cited from earlier work
[28] = test system: Janapese Encephalitis virus, strain Najayama; test: Antiviral test in vitro, Japanese encephalitis virus; type: cell-based, Japanese encephalitis virus; host Vero cells
[29] = test system: Punta Toro virus, strain Adames; test: microbe, parasite or virus in culture; type: cell-based, Punta Toro virus; host Vero cells
[30] = test system: Influenza (Hong Kong), strain A2 /Aichi/2/68; test: microbe, parasite or virus in culture; type: cell-based, Influenza virus; host MDCK (Madin Darby canine kidney cells)
[31] = test system: Yellow Fever virus, strain Asibi; test: microbe, parasite or virus in culture; type: cell-based, Yellow Fever virus; host Vero cells
[32] = test system: tumors; settings: literature; cited from earlier work

Structure (SMILES): Nc1ccn([C@@H]2C=C(CO)[C@@H](O)[C@@H]2O)c(=O)n1
- antitumor activity [1]: complete lack of antitumor activity

Structure (SMILES): Nc1nccc2c1ncn2[C@@H]1C[C@H](CO)[C@@H](O)[C@H]1O [3-Deazaaristeromycin, 3-deazaaristeromycin, reference compound]
- VR (virus rating) [2]: 2.1 and 3.0
- inhibition of AdoHcy hydrolase [3]: very potent and specific inhibitor
- phosphorylation and deamination [4]: resistance towards phosphorylation and deamination

Structure (SMILES): O=C1C=CN([C@@H]2O[C@H](CO)[C@@H](O)[C@H]2O)C(=O)C1 [3-Deazauridine, 3-deazauridine, reference compound]
- inhibition of CTP synthesis ([5]; result in words): powerful inhibitors of CTP synthesis
- % ILS ([6]; 3-Deazauridine 25 mg/kg): 72%
- % ILS ([6]; 3-Deazauridine 50 mg/kg): 61%
- % ILS ([6]; 3-Deazauridine 100 mg/kg): 80%
- % ILS ([7]; 3-Deazauridine 200 mg/kg): 5%
- % ILS ([7]; 3-Deazauridine 300 mg/kg): 4%
- tumor burden at the end of treatment ([7]; in vivo): three-log10 increase in tumor burden
- activity ([7]; result in words): inactive
- % tumor weight inhibition ([8]; 3-Deazauridine 200 mg/kg): 11%
- % tumor weight inhibition ([8]; 3-Deazauridine 300 mg/kg): 64%
- activity ([8]; result in words): inactive

Structure (SMILES): Nc1nccc2c1ncn2[C@@H]1O[C@H](CO)[C@@H](O)[C@H]1O [3-deazaadenosine]
- phosphorylation and deamination ([4]; literature): resistance towards phosphorylation and deamination

Structure (SMILES): Nc1ccn(C2CC(CO)C(O)C2O)c(=O)n1 (stereo not drawn) ["ara"-analogue]
- increase in life span [9]: 104%
- activity against L1210 leukemia ([9]; literature, J. Pharm. Chem., 68, 668 (1979)): activity

Structure (SMILES): Nc1nc2c(ncn2COCCO)c(=O)[nH]1 [Acyclovir]
- IC50 [10]: 0.7 µg/mL (≈ 3.11 µM)
- VR (virus rating) [10]: 6.7
- antiviral activity ([10]; result in words): more active that CPE-C
- antiviral activity ([11]; result in words): inactive
- IC50 [12]: 5.3 µg/mL (≈ 23.5 µM)
- VR (virus rating) [12]: 4.5

Structure (SMILES): Nc1ncnc2c1ncn2[C@@H]1O[C@H](CO)[C@@H](O)[C@@H]1O [Ara-A, arabinosyl adenine, reference compound]
- Pox Count (mean value, 20 mice) [13]: 2.8
- IC50 [10]: 13.6 µg/mL (≈ 50.9 µM)
- VR (virus rating) [10]: 1.8
- IC50 ([11]; Human alphaherpesvirus 1, Vero, in Chlorocebus sabaeus, read-out: ID50, Vero cells, strain HF, inhibition of virus-induced cytopathogenic effects, two determinations): 2.1 µg/mL (≈ 7.86 µM)
- VR (virus rating) ([11]; Vero cells, strain HF, two determinations): 3.3 and 2.9
- IC50 [12]: 49.9 µg/mL (≈ 187 µM)
- VR (virus rating) [12]: 1.3
- IC50 ([14]; Orthopoxvirus vaccinia, Vero, in Chlorocebus sabaeus, read-out: ID50): 9.8 µg/mL (≈ 36.7 µM)
- VR (virus rating) ([14]; Vero cells, strain Lederle CA): 3.1

Structure (SMILES): Nc1ncnc2c1ncn2[C@@H]1C[C@H](CO)[C@@H](O)[C@H]1O [C-Ado]
- activity in the in vivo mouse L1210 model ([9]; literature): inactivity in the in vivo mouse L1210 model system
- cytotoxicity [15]: highly cytotoxic
- cytotoxicity [16]: highly cytotoxic
- affinity for adenosine deaminase relative to adenosine [17]: a hundredfold lower
- effect on malignant cell lines [18]: inhibited growth
- effect on quiescent normal cells [18]: induced cell proliferation

Structure (SMILES): Nc1ccn([C@@H]2C[C@H](CO)[C@@H](O)[C@H]2O)c(=O)n1 [Carbodine]
- increase in life span [9]: 82%
- potency against HSV-1 TK- vs TK+ [19]: more potent against a strain of the HSV-1 virus deficient in its ability to induce thymidine kinase
- antiviral activity [20]: Slight carbodine activity
- antiviral activity [21]: very effective
- antiviral activity [22]: Good activity
- antiviral activity [23]: Slight carbodine activity

Structure (SMILES): Nc1nc2c(ncn2COC(CO)CO)c(=O)[nH]1 [DHPG, 9(1,3-Dihydroxy-2-propoxymethyl)guanine, reference compound]
- log reduction at 1 µg/mL ([24]; Human betaherpesvirus 5, 144 h, 1.0 μg/ml, MRC5 cells, read-out: Reduction in Virus Yield): 1.1
- log reduction at 10 µg/mL ([24]; Human betaherpesvirus 5, 144 h, 10 μg/ml, MRC5 cells, read-out: Reduction in Virus Yield): 3.8
- log reduction at 32 µg/mL ([24]; Human betaherpesvirus 5, 144 h, 32 μg/ml, MRC5 cells, read-out: Reduction in Virus Yield): 5.3
- log reduction at 100 µg/mL ([24]; Human betaherpesvirus 5, 144 h, 100 μg/ml, MRC5 cells, read-out: Reduction in Virus Yield): 5.3
- log reduction at 320 µg/mL ([24]; Human betaherpesvirus 5, 144 h, 320 μg/ml, MRC5 cells, read-out: Reduction in Virus Yield): 5.3
- antiviral activity ([24]; result in words): superior
- inhibition at 1 µg/mL ([25]; 1.0 μg/ml): 44%
- inhibition at 3.2 µg/mL ([25]; 3.2 μg/ml): 46%
- inhibition at 10 µg/mL ([25]; 10 μg/ml): 69%
- inhibition at 32 µg/mL ([25]; 32 μg/ml): 85%
- inhibition at 100 µg/mL ([25]; 100 μg/ml): 100%
- inhibition at 320 µg/mL ([25]; 320 μg/ml): 100%
- Host cell toxicity (gross cell morphology) [26]: Very slightly toxic

Structure (SMILES): Nc1ncnc2c1ncn2[C@@H]1C=C(CO)[C@@H](O)[C@H]1O [Neplanocin A, 9[(1'R,2'S,3'R)-4'-Hydroxymethyl-2',3'dihydroxy-4 cyclopenten-1'-yl]adenine]
- inhibition of AdoHcy hydrolase [3]: potent inhibitor
- side effects including cytotoxicity [27]: multiplicity of side effects including cytotoxicity
- phosphorylation and deamination ([4]; literature): readily phosphorylated

Structure (SMILES): NC(=O)c1ncn([C@@H]2O[C@H](CO)[C@@H](O)[C@H]2O)n1 [Ribavirin, reference compound]
- IC50 ([28]; Japanese encephalitis virus, Vero, read-out: ID50): 3 µg/mL (≈ 12.3 µM)
- VR (virus rating) ([28]; Vero cells, strain Najayama): 2.4
- VR (virus rating) [29]: 1.8
- IC50 ([29]; Punta Toro virus, Vero, read-out: ID50): 20.1 µg/mL (≈ 82.3 µM)
- VR (virus rating) [30]: 3.6
- IC50 ([30]; MDCK, in Canis lupus familiaris, read-out: ID50): 18.7 µg/mL (≈ 76.6 µM)

Structure (SMILES): c1c[se]cn1 [Selenazole, reference compound]
- VR (virus rating) ([31]; Vero cells, strain Asibi): 2.4
- IC50 ([31]; Yellow fever virus, Vero, read-out: ID50): 1.8 µg/mL (≈ 13.6 µM)
- TI (therapeutic index) ([31]; minimum toxic drug concentration / ID50, Vero cells): 0.6

Structure (SMILES): Nc1ccn([C@@H]2O[C@H](CO)[C@@H](O)[C@@H]2O)c(=O)n1 [ara-C, cytosine arabinoside]
- activity against human and animal tumors [32]: well-known activity

Structure (SMILES): Nc1ccn([C@@H]2C=C(COP(=O)(O)OP(=O)(O)OP(=O)(O)O)[C@@H](O)[C@H]2O)c(=O)n1 [triphosphate metabolite of CPE-C]
- inhibition of CTP-synthesase ([5]; triphosphate isolated from L1210 cell extracts): responsible for the inhibition of CTP-synthesase
